The results in this text go back to publication PMC5503158 (Cancer research, 2017).

For the test, the target named is Bax (Homo sapiens, UniProt Q07812). The test can be described thus: competition fluorescence polarization assay with fluorescent Bak BH3 peptide. The class given is binding.
Bax, sequence (Q07812 whole entry): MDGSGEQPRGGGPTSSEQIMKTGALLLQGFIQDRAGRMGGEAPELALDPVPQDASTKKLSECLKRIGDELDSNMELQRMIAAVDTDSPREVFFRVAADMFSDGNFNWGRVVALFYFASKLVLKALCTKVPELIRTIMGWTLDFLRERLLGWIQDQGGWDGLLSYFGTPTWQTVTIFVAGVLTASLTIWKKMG

In the case of `NCCOc1ccccc1C=C1c2ccccc2-c2ccc([N+](=O)[O-])cc21` [CYD-2-11], the Ki was determined as 34.1 ± 8.54 nM.
